US9469665B2, “Compound having lysophosphatidylserine receptor function modulation activity” (THE UNIVERSITY OF TOKYO, priority 2013, dated 2016)
Counter-ions that a name gives are not always drawn.

Assays:
[1] = molecular target: T1, mouse GPR34 (Mus musculus, UniProt Q9R1K6); experiment: TGFα shedding assay, agonistic activity on GPR34; assay type: cell-based; design: key to GPR34/LPS2 agonistic activity, TGFα shedding assay: an activity that is 100 folds that of control compound 1 as +++++; an activity that is 10 folds that of control compound 1 as ++++; the activity of the control compound 1 (LPS18:1) as +++; an activity that is 1/10 as ++; an activity that is 1/100 as +; an activity below that as −; details: for GPR34/LPS2 agonistic activity, TGFα shedding assay: HEK293 cells transfected with mouse GPR34 and AP labeled TGFα, activity relative to control compound 1 (LPS18:1) = +++
T1 construct: expressed in transfected cells; host or cells: HEK293
Protocol: (§1) [Test Example 1]Assay of Agonistic Activity by TGFα Shedding Assay
(§2) HEK293 cells were suspended in the Dulbecco's modified Eagle's medium (DMEM) containing 10% fetal bovine serum (FCS) to exist in an amount of 2.0×10^5 cells/mL, and they were seeded in 60 mm dishes at 4 mL per dish. Transfection of different expression vectors was performed using LipofectAMINE 2000 (Invitrogen) after 24 hours of culture under the presence of 5% CO2. For each 60 mm dish, 1 μg of AP labeled TGFα plasmid vectors were used, and 1 μg of pCAGGS plasmid vectors of mouse GPR34, P2Y10 or GPR174 were used. The plasmid vectors were prepared by methods disclosed in Patent Documents 2 and 5. Note that the AP labeled TGFα is a protein comprising a membrane-bound pro-TGFα whose N terminal end is fused with human placental alkaline phosphatase, and the plasmid vector of the AP labeled TGFα may be produced based on the teaching of Tokumaru et al., J Cell Biol 151, 209-220 (2000). After 24 hours of transfection, the cells were peeled off using trypsin/EDTA, and they were re-suspended in a culture medium to form an amount of 2.0×10^4 cells/well to be seeded to a 96-well plate. Hanks' Balanced Salt Solution (HBSS, containing 5 mM HEPES) was used for the re-suspended solution when stimulating with the compound. After it was left still for 30 min., subject compounds of various concentrations were added and the solutions were left still for another 1 hour under the presence of 5% CO2. The 96-well plate was subjected to centrifugation (190×g, 3 min.), then 80 μl of supernatant was transferred to a different 96-well plate. A reaction buffer (40 mM Tris-HCl (pH 9.5)) containing 10 mM p-nitrophenyl phosphate (p-NPP) was added in an amount of 80 μL to the supernatant and cells. The OD405 was measured with a micro plate reader (background), then after heating at 37° C. for an hour, OD405 was re-measured. The AP activity for each well was obtained by subtracting the background from the second absorbance and plugging the difference into the following formula.
(§3) In addition, the value obtained by subtracting the AP activity (%) of the non-stimulated group was used in the vertical axis to create a graph. The graphs of the test results for Example 3 (lysoPS sn-1-deoxy sn3 C3-ph-o-OBn-m-Oph) and Example 31 (lysoPS sn-1-OMe sn3 C3-ph-o-OBn-m-Oph) are shown in FIG. 1.
(§4) The obtained activity is shown by plotting the compound concentration and AP activity (%), then representing the activity of the control compound 1 (LPS18:1) as +++, an activity that is 10 folds that of control compound 1 as ++++, an activity that is 100 folds that of control compound 1 as +++++, an activity that is 1/10 as ++, and an activity that is 1/100 as +, and an activity below that as −.

[2] = molecular target: T2, mouse P2Y10 (Mus musculus, UniProt Q8BFU7); experiment: TGFα shedding assay, agonistic activity on P2Y10; assay type: cell-based; design: key: an activity that is 100 folds that of control compound 1 as +++++; an activity that is 10 folds that of control compound 1 as ++++; the activity of the control compound 1 (LPS18:1) as +++; an activity that is 1/10 as ++; an activity that is 1/100 as +; an activity below that as −; details: HEK293 cells transfected with mouse P2Y10 and AP labeled TGFα; activity relative to control compound 1 (LPS18:1) = +++
T2 construct: expressed in transfected cells; host or cells: HEK293
Protocol: as §1, §2, §3, §4

[3] = molecular target: T3, mouse GPR174 (Mus musculus, UniProt Q3U507); experiment: TGFα shedding assay, agonistic activity on GPR174; assay type: cell-based; design: key: an activity that is 100 folds that of control compound 1 as +++++; an activity that is 10 folds that of control compound 1 as ++++; the activity of the control compound 1 (LPS18:1) as +++; an activity that is 1/10 as ++; an activity that is 1/100 as +; an activity below that as −; details: HEK293 cells transfected with mouse GPR174 and AP labeled TGFα; activity relative to control compound 1 (LPS18:1) = +++
T3 construct: expressed in transfected cells; host or cells: HEK293
Protocol: as §1, §2, §3, §4

T2 sequence (Q8BFU7 whole entry): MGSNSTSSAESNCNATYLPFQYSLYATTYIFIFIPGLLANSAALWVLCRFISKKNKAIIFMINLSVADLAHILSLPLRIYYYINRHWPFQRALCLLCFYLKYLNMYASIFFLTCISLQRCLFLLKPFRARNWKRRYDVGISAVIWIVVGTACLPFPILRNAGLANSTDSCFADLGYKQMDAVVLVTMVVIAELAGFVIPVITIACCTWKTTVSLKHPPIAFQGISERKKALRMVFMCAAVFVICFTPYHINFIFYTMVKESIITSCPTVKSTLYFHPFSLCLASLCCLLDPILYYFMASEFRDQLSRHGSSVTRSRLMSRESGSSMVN
T3 sequence (Q3U507 whole entry): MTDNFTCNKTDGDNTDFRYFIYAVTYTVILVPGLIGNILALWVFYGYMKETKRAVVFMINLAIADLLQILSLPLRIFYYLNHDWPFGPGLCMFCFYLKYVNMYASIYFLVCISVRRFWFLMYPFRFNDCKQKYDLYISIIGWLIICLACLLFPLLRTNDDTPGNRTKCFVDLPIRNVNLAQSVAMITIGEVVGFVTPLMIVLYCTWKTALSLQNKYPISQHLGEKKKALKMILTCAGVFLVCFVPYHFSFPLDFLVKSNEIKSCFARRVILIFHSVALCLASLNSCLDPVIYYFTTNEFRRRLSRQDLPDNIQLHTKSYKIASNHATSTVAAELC
T1 sequence (Q9R1K6 whole entry): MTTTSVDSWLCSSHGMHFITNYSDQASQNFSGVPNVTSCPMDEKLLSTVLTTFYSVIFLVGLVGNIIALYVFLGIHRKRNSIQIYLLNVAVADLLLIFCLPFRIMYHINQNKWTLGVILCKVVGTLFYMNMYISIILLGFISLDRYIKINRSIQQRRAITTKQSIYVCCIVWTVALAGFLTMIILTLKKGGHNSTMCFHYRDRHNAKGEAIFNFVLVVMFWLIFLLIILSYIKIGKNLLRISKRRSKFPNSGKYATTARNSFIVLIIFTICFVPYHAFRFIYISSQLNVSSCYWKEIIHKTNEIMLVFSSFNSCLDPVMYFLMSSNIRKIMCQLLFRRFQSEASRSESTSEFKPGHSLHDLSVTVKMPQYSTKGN

SMILES	melting point	GPR34/LPS2 agonistic activity, TGFα shedding assay [1]	receptor selectivity of agonist activity among GPR34, P2Y10, GPR174 (graphs of FIG. 1) ([1]; TGFα shedding assay, HEK293 cells, AP activity (%) vs concentration)	P2Y10/LPS2 agonistic activity, TGFα shedding assay [2]	GPR174/LPS3 agonistic activity, TGFα shedding assay [3]
CCCCCCCC/C=C\CCCCCCCC(=O)OC[C@H](C)OP(=O)(O)OC[C@H](N)C(=O)O (as salt: TFA) [Example 2, (9Z)-Octadeca-9-enoic acid (2S)-2-[((2S)-2-amino-2-carboxy-ethoxy)-hydroxy-phosphoryloxy]-propyl ester]	133.5 to 134.5 °C				
CCCCCCCC/C=C\CCCCCCCC(=O)OC[C@@H](COCc1ccccc1)OP(=O)(O)OC[C@H](N)C(=O)O (as salt: TFA) [Example 7, (9Z)-Octadeca-9-enoic acid (2R)-2-[((2S)-2-amino-2-carboxy-ethoxy)-hydroxy-phosphoryloxy]-3-benzyloxy-propyl ester]	118.5 to 122 °C				
CCCCCCCCCCCOc1ccc(C(C)(C)C)cc1CCC(=O)O[C@H]1COCC[C@@H]1OP(=O)(O)OC[C@H](N)C(=O)O (as salt: TFA) [Example 12, (2S)-2-amino-3-({(3S,4S)-3-[3-(5-tert-butyl-2-undecyloxy-phenyl)-propionyloxy]-tetrahydro-pyran-4-yloxy}-hydroxy-phosphoryloxy)-propionic acid]	144 to 144.5 °C				
C[C@H](OP(=O)(O)OC[C@H]1OCCC[C@H]1OC(=O)CCc1ccccc1OCc1cccc(Oc2ccccc2)c1)[C@H](N)C(=O)O (as salt: TFA) [Example 28, (2S,3S)-2-amino-3-[hydroxyl-((2R,3R)-3-{3-[2-(3-phenoxy-benzyloxy)-phenyl]-propionyloxy}-tetrahydro-pyran-2-ylmethoxy)-phosphoryloxy]-butyric acid]	62 to 72 °C				
C[C@H](COC(=O)CCc1ccccc1OCc1cccc(Oc2ccccc2)c1)OP(=O)(O)OC[C@H](N)C(=O)O [Example 3, (2S)-2-amino-3-[hydroxyl-((1R)-1-methyl-2-{3-[2-(3-phenoxy-benzyloxy)-phenyl]-propionyloxy}-ethoxy)-phosphoryloxy]-propionic acid]		+++++	agonists having selectivity against GPR34	++	−
CCCCCCCC/C=C\CCCCCCCC(=O)OC[C@H](C)OP(=O)(O)OC[C@H](N)C(=O)O [Example 2, (9Z)-Octadeca-9-enoic acid (2S)-2-[((2S)-2-amino-2-carboxy-ethoxy)-hydroxy-phosphoryloxy]-propyl ester]		+++		++~+++	+~++
N[C@@H](COP(=O)(O)O[C@@H]1CCCO[C@@H]1COC(=O)CCc1ccccc1OCc1cccc(Oc2ccccc2)c1)C(=O)O [Example 17]		++++		−	−
CCCCCCCCCCCOc1ccccc1CCC(=O)O[C@H]1CCOC[C@@H]1OP(=O)(O)OC[C@H](N)C(=O)O [Example 10, (2S)-2-amino-3-(hydroxy-{(3S,4S)-4-[3-(2-undecyloxy-phenyl)-propionyloxy]-tetrahydro-pyran-3-yloxy}-phosphoryloxy)-propionic acid]		−		++~+++	−
CCCCCCCC/C=C\CCCCCCCC(=O)OC[C@@H](COCC)OP(=O)(O)OC[C@H](N)C(=O)O [Example 6, (9Z)-Octadeca-9-enoic acid (2R)-2-[((2S)-2-amino-2-carboxy-ethoxy)-hydroxy-phosphoryloxy]-3-ethoxypropyl ester]		+++++		+	−
CCCCCCCC/C=C\CCCCCCCC(=O)OC[C@H]1OCC=C[C@@H]1OP(=O)(O)OC[C@H](N)C(=O)O [Example 23, (9Z)-Octadeca-9-enoic acid (2R,3S)-3-[((2S)-2-amino-2-carboxy-ethoxy)-hydroxy-phosphoryloxy]-3,6-dihydro-2H-pyran-2-ylmethyl ester]		++		++	−
N[C@@H](COP(=O)(O)O[C@@H]1C=CCO[C@@H]1COC(=O)CCc1ccccc1OCc1cccc(Oc2ccccc2)c1)C(=O)O [Example 26, (2S)-2-amino-3-[hydroxyl-((2R,3R)-2-{3-[2-(3-phenoxybenzyloxy)-phenyl]-propionyloxymethyl}-3,6-dihydro-2H-pyran-3-yloxy)-phosphoryloxy]-propionic acid]		+++~++++		++	−
CCCCCCCCCCCOc1ccccc1CCC(=O)OC[C@H]1OCC=C[C@@H]1OP(=O)(O)OC[C@H](N)C(=O)O [Example 19, (2S)-2-amino-3-(hydroxyl-{(2R,3S)-2-[3-(2-undecyloxy-phenyl)-propionyloxymethyl]-3,6-dihydro-2H-pyran-3-yloxy}-phosphoryloxy)-propionic acid]		−		++	−
N[C@@H](COP(=O)(O)OC[C@H]1OCCC[C@@H]1OC(=O)CCc1ccccc1OCc1cccc(Oc2ccccc2)c1)C(=O)O [Example 13, (2S)-2-amino-3-[hydroxyl-((2R,3S)-3-{3-[2-(3-phenoxy-benzyloxy)-phenyl]-propionyloxy}-tetrahydro-pyran-2-ylmethoxy)-phosphoryloxy]-propionic acid]		++		−~+	−
N[C@@H](COP(=O)(O)OC[C@H]1OCCC[C@H]1OC(=O)CCc1ccccc1OCc1cccc(Oc2ccccc2)c1)C(=O)O [Example 18]		++++~+++++		−	−
CCCCCCCCCCCOc1ccccc1CCC(=O)OC[C@H]1OCC=C[C@H]1OP(=O)(O)OC[C@H](N)C(=O)O [Example 25, (2S)-2-amino-3-(hydroxy-{(2R,3R)-2-[3-(2-undecyloxy-phenyl)-propionyloxymethyl]-3,6-dihydro-2H-pyran-3-yloxy}-phosphoryloxy)-propionic acid]		+~++		+++~++++	−
CCCCCCCC/C=C\CCCCCCCC(=O)OC[C@H](COC)OP(=O)(O)OC[C@H](N)C(=O)O [Example 5, (9Z)-Octadeca-9-enoic acid (2S)-2-[((2S)-2-amino-2-carboxy-ethoxy)-hydroxy-phosphoryloxy]-3-methoxy-propyl ester]		++		+	−
